The subject of the assay is cultured human skin fibroblasts. The assay can be described thus: [^3H]-Proline Incorporation Assay (collagen biosynthesis). The assay is classed as cell-based. Particulars: fibroblasts incubated with 11.3, 22.5 and 45 µg/ml for 48 hours; radioactive counts of newly synthesized [^3H]-hydroxyproline; numbers only in a chart image. As for the experimental part: An art-recognized [^3H]-Proline Incorporation Assay was performed with different doses of 3'-(L-ascorbyl-2-phosphoryl)-cholesterol. Juva, Anal. Biochem., Vol. 15, pages 77-83 (1966); Booth, Biochim. Biophys. Acta, Vol. 675, pages 117-122 (1981).
Fibroblasts were incubated with 0 µg/ml, 11.3 µg/ml, 22.5 µg/ml and 45 µg/ml of 3'-(L-ascorbyl-2-phosphoryl)-cholesterol for a total of 48 hours. After the first 24 hours [^3H]-labeled proline was added to the culture. Following the second 24 hour period the cells were harvested and prepared for the collagen biosynthesis assay.
Protease inhibitors were added to prevent degradation of collagen and other proteins. The cell layer was scraped into a solution containing 0.4 M NaCl and 0.01 M Tris (pH 7.5). Extracts were sonicated to disrupt cell membranes. Separate volumes of the cell-containing solution (1 ml each) were dialyzed overnight against several changes of deionised water. The retentate was removed from dialysis and hydrolyzed in 6 N hydrochloric acid at 120°C overnight. The assay was performed using an oxidation process with 2 M chloramine-T. Samples were analyzed for radioactive counts, which represent the amount of newly synthesized [^3H]-hydroxyproline -- an index for new collagen synthesis.

As for `CC(C)CCC[C@@H](C)[C@H]1CC[C@H]2[C@@H]3CC=C4C[C@@H](OP(=O)(O)OC5=C(O)[C@@H]([C@@H](O)CO)OC5=O)CC[C@]4(C)[C@H]3CC[C@]12C` [3'-(L-ascorbyl-2-phosphoryl)-cholesterol], the “production of new collagen” value is “increased production of new collagen by human skin fibroblasts in a dose-dependent manner”.

(Values after patent EP0843554B1, “ASCORBYL-PHOSPHORYL-CHOLESTEROL” (AVON PRODUCTS, INC., priority 1996, dated 1997).)
